# Measured values: PMC6372556, “The Neisseria gonorrhoeae Methionine Sulfoxide Reductase (MsrA/B) Is a Surface Exposed, Immunogenic, Vaccine Candidate” (Frontiers in Immunology, 2019)
# Target: T1, MsrA/B
# T1 construct: recombinant, msr gene of strain 1291 in pET15b (NdeI/XhoI primers), His-tagged, E. coli BL21 Star (DE3)pLysS, TALON purified; full protein 522 aa; amine-coupled to SPR chip
# Assay: SPR, Biacore T200, single cycle kinetics, MsrA/B immobilized by amine coupling on CM5 chip
# Assay type: binding, Neisseria gonorrhoeae
# Details: free Met(O) 0.16-100 nM; no serum; substrate; sulfoxide epimer and D/L form not told
# Excerpt: SPR, Biacore T200, single cycle kinetics, MsrA/B immobilized by amine coupling on CM5 chip on MsrA/B | MsrA/B bound to Met(O) with a high affinity, with a KD
structure (smiles),measurement,value
C[S+]([O-])CC[C@H](N)C(=O)O (stereo partly shown) [Met(O)],Kd,15.4 ± 3.7 nM
